# Measured values from EP1388013B1, “COMPOSITIONS AND METHODS FOR THE USE OF FIBRONECTIN FRAGMENTS IN THE DIAGNOSIS OF CANCER” (THE REGENTS OF THE UNIVERSITY OF MICHIGAN, priority 2001, dated 2002).
# Entries after “also recorded” stand apart in the source; their conditions may differ. Non-standard residues stand in square brackets, D forms with d. Residues, ends and D or L forms follow the SMILES beside them. No end group written: not given here. hCys = N[C@@H](CCS)C(=O)O
# How the values were obtained:
# [1] = tested on: metastatic DU-145 prostate cancer cells; assay: SU-ECM invasion assay, DU-145 cells; assay type: cell-based, human; details: for IC100: Homo sapiens, DU-145, read-out: concentration that completely (fully) inhibits the invasion of metastatic DU145 cells; for concentration that completely inhibits the invasion of metastatic DU145 cells: Example 10; for concentration that completely (fully) inhibits the invasion of metastatic DU145 cells: Example 11, Figure 7, molar basis; for inhibition of serum-induced invasion of DU-145 cells: Figure 4A; for inhibition of PHSRN-induced invasion of DU-145 cells: serum-free medium, 100 ng per ml PHSRN, Figure 4B
# Experimental: (§1) Adult Strongylocentrotus purpuratus sea urchins were obtained from Pacific BioMarine, and their embryos were cultured to the early pluteus stage in artificial sea water at 15°C. SU-ECM were prepared from them by treatment with nonionic detergent and sterilized by dilution in the appropriate media.
# (§2) […] When appropriate, purified bovine plasma fibronectin (Sigma, St. Louis, Mo), purified 120 kDa chymotryptic fragment (Gibco BRL), PHSRN or PHSCN peptides (synthesized at the Biomedical Research Core Facilities of the University of Michigan), or GRGDSP or GRGESP peptides (Gibco BRL) were added to the resuspended cells prior to placement of the cells on SU-ECM. In each well of a plate used for an invasion assay, SU-ECM were placed in 0.5 ml of the appropriate medium, and 0.5ml of the resuspended cells dropped on their exterior surfaces. Invasion assays were incubated 1 to 16 hours prior to scoring. If some circumstances, invasion assays were fixed in phosphate-buffered saline (PBS) with 2% formaldehyde for 5 minutes at room temperature, then rinsed into PBS.
# (§3) Invasion assays were coded and scored blindly by microscopic examination under phase contrast at 200- and 400-fold magnification. Each cell contacting an SU-ECM was scored for its position relative to the exterior or interior surfaces. A cell was judged to have invaded if it was located on an interior surface below the focal plane passing through the upper surface of the SU-ECM, but above the focal plane passing through its lower surface. The minimum viability of the cells in each assay was always ascertained at the time of assay by determining the fraction of spread, adherent cells on the bottom of each well scored.
# (§4) An invasion frequency is defined as the fraction of cells in contact with basement membranes which were located in their interiors at the time of assay. Thus, an invasion frequency of 1 denotes invasion by 100% of the cells in contact with basement membranes. Invasion frequencies were determined multiple times for each cell type assayed. For each type of cell assayed the mean and standard deviation of the invasion frequencies were calculated.
# (§5) The method of Example 4 is employed, with the addition of varying concentrations of the PHSCN peptide.
# (§6) Thus, the procedure in Example 4 provides a method for determining the inhibitory potential of the PHSCN peptide by comparing the number of cell invasions in the presence of the PHSCN peptide, with the number of cell invasions in the absence of the PHSCN peptide.
# In this example, in vitro invasion of cancer cells into substrates is inhibited with peptides that have been chemically modified with protecting groups and peptides having protecting groups as well as the modification wherein an L-amino acid has been replaced with the D-isomer. PHSCN peptide, blocked PHSCN peptide, and blocked PHSCN peptide with a D-cysteine instead of the L-isomer, were tested (Figure 4A, 4B).
# In this example, in vitro invasion of cancer cells into substrates is inhibited with non-peptide mimetics in comparison with chemically modified peptides (on a molar basis). The peptides of Example 10 (i.e. peptides chemically modified with protecting groups and peptides having protecting groups as well as the modification wherein an L-amino acid has been replaced with the D-isomer) were compared with the non-peptide mimetics DL-N-Acetylhomocysteinethiolactone, Thiobutyrolactone, and Mercaptopropionic acid, in order to investigate the structure activity relationship for invasion inhibition by interaction with the PHSRN-binding pocket of the α5β1 fibronectin receptor (Figure 7)
# [2] = tested on: neonatal fibroblasts; assay: SU-ECM invasion assay, neonatal fibroblasts; assay type: cell-based, human; details: in the presence (10% FCS) or absence of serum; molar concentration equivalent to plasma fibronectin in serum; Figure 9
# Excerpt: In one example cells for the invasion assay are harvested by rinsing in Hanks' balanced salt solution, followed by brief treatment with 0.25% trypsin, 0.02% EDTA, and pelleting and resuspension in the appropriate medium with or without 5% FCS at a density of about 50,000 cells per ml. When appropriate, purified bovine plasma fibronectin (from Sigma, St. Louis, Mo), purified 120 kDa chymotryptic fragment (Gibco BRL) or PHSRN peptides (synthesized at the Biomedical Research Core Facilities of the University of Michigan) are added to the resuspended cells prior to placement of the cells on SU-ECM. In each well of a plate used for an invasion assay, SU-ECM were placed in 0.5 ml of the appropriate medium, and 0.5ml of the resuspended cells dropped on their exterior surfaces. Invasion assays were incubated 1 to 16 hours prior to assay. If some circumstances, invasion assays were fixed in phosphate-buffered saline (PBS) with 2% formaldehyde for 5 minutes at room temperature, then rinsed into PBS.
# as §3, with “are” for “were”, “is” for “was”
# as §4, with “membranes which are located in” for “membranes which were located in”, “Invasion frequencies are determined multiple” for “Invasion frequencies were determined multiple”
# In this example, the invasiveness of neonatal fibroblasts into an SU-ECM invasion substrate is considered. Experiments were performed under serum-free conditions, or in medium with 10% fetal calf serum (FCS). Neither serum-free medium nor medium containing serum supported fibroblast invasion. However, consistent with the induction of metalloproteinase gene transcription by the 120 kDa fragment of plasma fibronectin (pFn) containing the cell-binding domain, the 120 kDa fragment induced fibroblast invasion in the presence or in the absence of serum. […]
# [3] = tested on: rat metastatic prostate carcinoma MatLyLu (MLL) cells; assay: SU-ECM invasion assay, MatLyLu cells; assay type: cell-based; details: 10% FCS, Figure 5
# Experimental: as §1
# […] When appropriate, purified bovine plasma fibronectin (Sigma, St. Louis, Mo), purified 120 kDa chymotryptic fragment (Gibco BRL), PHSRN or PHSCN peptides (synthesized at the Biomedical Research Core Facilities of the University of Michigan), or GRGDSP or GRGESP peptides (Gibco BRL) were added to the resuspended cells prior to placement of the cells on SU-ECM. […]
# as §3, with “A cell was judged to have invaded if it was located on an interior surface below the focal plane passing through the upper surface of the SU-ECM, but above the focal plane passing through its lower surface.” left out
# An invasion frequency is defined as the fraction of cells in contact with basement membranes which were located in their interiors at the time of assay. […] Invasion frequencies were determined multiple times for each cell type assayed. […]
# [4] = tested on: metastatic SUM-52 PE breast cancer cells; assay: SU-ECM invasion assay, SUM-52 PE cells; assay type: cell-based, human; details: for inhibition of serum-induced invasion of SUM-52 PE cells: medium with 5% serum, Figure 3A; for inhibition of PHSRN-induced invasion of SUM-52 PE cells: serum free media, 100 ng per ml PHSRN, Figure 3B
# Experimental: as §1
# Cells were harvested by rinsing in Hanks balanced salt solution, followed by brief treatment with 0.25% trypsin, 0.02% EDTA, and pelleting and resuspension in the appropriate medium with or without 5% FCS at a density of about 50,000 cells per ml. When appropriate, purified bovine plasma fibronectin (Sigma, St. Louis, Mo), purified 120 kDa chymotryptic fragment (Gibco BRL), PHSRN or PHSCN peptides (synthesized at the Biomedical Research Core Facilities of the University of Michigan), or GRGDSP or GRGESP peptides (Gibco BRL) were added to the resuspended cells prior to placement of the cells on SU-ECM. In each well of a plate used for an invasion assay, SU-ECM were placed in 0.5 ml of the appropriate medium, and 0.5ml of the resuspended cells dropped on their exterior surfaces. Invasion assays were incubated 1 to 16 hours prior to scoring. If some circumstances, invasion assays were fixed in phosphate-buffered saline (PBS) with 2% formaldehyde for 5 minutes at room temperature, then rinsed into PBS.
# as §3, §4, §5, §6
# [5] = tested on: normal human mammary epithelial cells; assay: SU-ECM invasion assay, normal mammary epithelial cells; assay type: cell-based; details: 10% FCS, 100 ng per ml PHSRN, Figure 3B
# Experimental: as §1, §2, §3
# as §4, with “Thus, an invasion frequency of 1 denotes invasion by 100% of the cells in contact with basement membranes.” left out, “calculated. […]” for “calculated.”
# [6] = tested on: normal human prostate epithelial cells; assay: SU-ECM invasion assay, normal prostate epithelial cells; assay type: cell-based; details: 10% FCS, 100 ng per ml PHSRN, Figure 4B
# Experimental: as §1, §2, §3
# as §4, with “Thus, an invasion frequency of 1 denotes invasion by 100% of the cells in contact with basement membranes.” left out, “calculated. […]” for “calculated.”
# [7] = DU145 invasion inhibition, 10% serum
compound,measurement,setting,value
CC(=O)NC1CCSC1=O (racemic) [DL-N-Acetylhomocysteinethiolactone],fold less active than blocked PHSCN,[1]; [7],about 10 fold
same,fold more active than the unblocked PHSCN peptide,[1]; [7],about 3 fold
same,IC100,[1],0.6 µM
CC(=O)N1CCC[C@H]1C(=O)N[C@@H](Cc1c[nH]cn1)C(=O)N[C@@H](CO)C(=O)N[C@H](CS)C(=O)N[C@@H](CC(N)=O)C(N)=O [Ac-PHS(dC)N-NH2] (Ac-PHS[dC]N-NH2),invasion-inhibitory activity compared with Ac-PHSCN-NH2,"[1]; DU145 cells, medium with 10% serum, D-isomer of cysteine substituted",further increases the invasion-inhibitory activity; also recorded: further increases very substantially the invasion-inhibitory activity
"N=C(N)NCCC[C@H](NC(=O)CN)C(=O)NCC(=O)N[C@@H](CC(=O)O)C(=O)N[C@@H](CO)C(=O)O [GRGDS, reference compound]",induction of fibroblast invasion of SU-ECM,[2],no detectable activity
O=C(O)CCS [Mercaptopropionic acid],times less active in invasion inhibition than thiobutyrolactone,[1]; [7],at least 100 times
same,times less active than the unblocked PHSCN peptide,[1]; [7],≥ 1500 times
same,reduction of DU145 invasion,"[1]; at any of the concentrations tested, 10% serum",≤ 20%
NC(=O)C[C@H](NC(=O)[C@H](CCS)NC(=O)[C@H](CO)NC(=O)[C@H](Cc1c[nH]cn1)NC(=O)[C@@H]1CCCN1)C(=O)O [PHS(hC)N] (H-PHS[hCys]N-OH),inhibition of serum-induced invasion of MLL cells,[3]; higher concentrations,completely inhibits invasion
same,inhibition of serum-induced invasion of MLL cells,[3]; lower concentrations,substantially inhibits invasion
O=C1CCCS1 [Thiobutyrolactone],fold less active than N-acetylhomocysteinethiolactone,[1]; [7],50 fold
same,fold less active than blocked PHSCN,[1]; [7],about 500 fold
same,times less active than the unblocked PHSCN peptide,[1]; [7],15 times
same,IC100,[1],30 µM
Ac-PHSCN-NH2 [Ac-PHSCN-NH2],concentration that completely inhibits the invasion of metastatic DU145 cells,[1]; medium with 10% serum,approximately 1.3 ng/ml
same,concentration that completely (fully) inhibits the invasion of metastatic DU145 cells,[1]; medium with 10% serum,approximately 0.06 µM
PHSCN [PHSCN],inhibition of serum-induced invasion of SUM-52 PE cells,[4]; relatively high concentrations,complete inhibition
same,inhibition of serum-induced invasion of SUM-52 PE cells,[4]; relatively low concentrations,substantial inhibitory affect
same,inhibition of PHSRN-induced invasion of SUM-52 PE cells,[4]; higher concentrations,almost complete inhibition
same,inhibition of PHSRN-induced invasion of SUM-52 PE cells,[4]; low concentrations,substantial inhibitory affect
same,inhibition of PHSRN-induced invasion of normal human mammary epithelial cells,[5]; higher concentrations,almost complete inhibition
same,inhibition of PHSRN-induced invasion of normal human mammary epithelial cells,[5]; low concentrations,substantial inhibitory affect
same,inhibition of serum-induced invasion of DU-145 cells,"[1]; 10% serum, relatively high concentrations",complete inhibition
same,inhibition of serum-induced invasion of DU-145 cells,"[1]; 10% serum, relatively low concentrations",substantial inhibitory affect
same,concentration that completely inhibits the invasion of metastatic DU145 cells,[1]; medium with 10% serum,3 ng/mL
same,concentration that completely (fully) inhibits the invasion of metastatic DU145 cells,[1]; medium with 10% serum,approximately 2 µM
same,inhibition of PHSRN-induced invasion of DU-145 cells,[1]; higher concentrations,almost complete inhibition
same,inhibition of PHSRN-induced invasion of DU-145 cells,[1]; low concentrations,substantial inhibitory affect
same,inhibition of PHSRN-induced invasion of normal human prostate epithelial cells,[6]; higher concentrations,almost complete inhibition
same,inhibition of PHSRN-induced invasion of normal human prostate epithelial cells,[6]; low concentrations,substantial inhibitory affect
